28 compounds from patent US20230312587A1, “PTERIDINONE COMPOUNDS AND USES THEREOF” (Vertex Pharmaceutical Incorporated, priority 2018, published 2023) can be followed below.

Molecules are shown by their SMILES. Like-named read-outs stand apart in the source and are kept apart here. A value given as a limit tells only on which side of the number the result lay.

In the test the test system is β-catenin-TCF-mediated reporter transcription activity in Colo 205 cells. Nature of the test: Colo 205 reporter assay (TCF/LEF luciferase). Format: cell-based. In a few lines: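 Luciferase signal from a TCF/LEF-driven reporter, stably integrated in Colo 205 colon cancer cells, was measured 5 h after compound addition.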
A general note: A reporter such as luciferase makes a cellular process visible.

[1] abbreviates: Homo sapiens, COLO 205, 5 h, Colo 205 TCF/LEF luciferase reporter, five hours after addition of compound, read-out: TCF reporter Colo205 IC50.

`CC(C)c1cccc(Cn2cc(CNc3ncc4c(n3)N(C)[C@@H](C)C(=O)N4)cn2)c1` [Compound 81, (7S)-2-(((1-(3-isopropylbenzyl)-1H-pyrazol-4-yl)methyl)amino)-7,8-dimethyl-7,8-dihydropteridin-6(5H)-one]: under setting [1], the IC50 was less than 0.3 µM.
For `Cc1nc(N[C@H]2C[C@H](NC(=O)Oc3cc(F)c(F)c(F)c3)C2)nc2c1NC(=O)[C@H](C)N2C` [Compound 483, 3,4,5-trifluorophenyl (trans-3-(((S)-4,7,8-trimethyl-6-oxo-5,6,7,8-tetrahydropteridin-2-yl)amino)cyclobutyl)carbamate], the IC50 (Homo sapiens, 5 h, Colo 205 TCF/LEF luciferase reporter, five hours after addition of compound, read-out: TCF reporter Colo205 IC50) was 1 to 5 µM.
Take `Cc1nc(NCc2cnn(Cc3ccnc(O)c3)c2)nc2c1NC(=O)[C@H](C)N2C` [Compound 202, (7S)-2-(((1-((2-hydroxypyridin-4-yl)methyl)-1H-pyrazol-4-yl)methyl)amino)-4,7,8-trimethyl-7,8-dihydropteridin-6(5H)-one]: the IC50 under setting [1] was not below 5 µM.
Still for that read-out and setting: next, `Cc1nc(NC2CN(C(=O)Cc3cc(F)c(F)c(F)c3)C2)nc2c1NC(=O)[C@H](C(C)C)N2C` [Compound 544, (S)-7-isopropyl-4,8-dimethyl-2-((1-(2-(3,4,5-trifluorophenyl)acetyl)azetidin-3-yl)amino)-7,8-dihydropteridin-6(5H)-one]: less than 0.3 µM; `Cc1nc(NCc2cnn(Cc3ccc(OC(F)(F)F)cc3)c2)nc2c1NC(=O)[C@H](C(C)C)N2C` [Compound 467, (S)-7-isopropyl-4,8-dimethyl-2-(((1-(4-(trifluoromethoxy)benzyl)-1H-pyrazol-4-yl)methyl)amino)-7,8-dihydropteridin-6(5H)-one]: less than 0.3 µM.
In the case of `COC1(C2C(=O)Nc3c(C)nc(NCc4cnn(Cc5cc(C(F)(F)F)nn5C)c4)nc3N2C)CC1` (stereo not shown) [Compound 666, 7-(1-methoxycyclopropyl)-4,8-dimethyl-2-(((1-((1-methyl-3-(trifluoromethyl)-1H-pyrazol-5-yl)methyl)-1H-pyrazol-4-yl)methyl)amino)-7,8-dihydropteridin-6(511)-one], where the note is “Colo 205 TCF/LEF luciferase reporter, five hours after addition of compound, read-out: TCF reporter Colo205 IC50”, the IC50 fell in the range of 0.3 to 1 µM.
With `Cc1nc(NCc2cnn(Cc3ccc(F)nc3)c2)nc2c1N(C)C(=O)[C@H](C)N2C` [Compound 82, (7S)-2-(((1-((6-fluoropyridin-3-yl)methyl)-1H-pyrazol-4-yl)methyl)amino)-4,5,7,8-tetramethyl-7,8-dihydropteridin-6(5H)-one], under setting [1], the IC50 lay within 0.3 to 1 µM.
On the same count and under the same terms, the value for `Cc1nc(NCc2cnn(Cc3ccnc(Cl)c3)c2)nc2c1NC(=O)[C@H](C(C)C)N2C` [Compound 446, (7S)-2-(((1-((2-chloropyridin-4-yl)methyl)-1H-pyrazol-4-yl)methyl)amino)-7-isopropyl-4,8-dimethyl-7,8-dihydropteridin-6(5H)-one] was less than 0.3 µM.
The same measure, in the same setting: the value for `Cc1nc(N[C@H]2C[C@H](NC(=O)Nc3cc(F)c(F)c(F)c3)C2)nc2c1NC(=O)[C@H](C)N2C` [Compound 474, 1-(3,4,5-trifluorophenyl)-3-(trans-3-(((S)-4,7,8-trimethyl-6-oxo-5,6,7,8-tetrahydropteridin-2-yl)amino)cyclobutyl)urea] was 1 to 5 µM; that for `Cc1nc(N[C@H]2C[C@H](Cn3nccc3C(F)(F)F)C2)nc2c1NC(=O)C1(CCOC1)N2C` (relative stereo) [Compound 688, 4′,8′-dimethyl-2′-((trans-3-((5-(trifluoromethyl)-1H-pyrazol-1-yl)methyl)cyclobutyl)amino)-4,5,5′,8′-tetrahydro-2H,6′H-spiro[furan-3,7′-pteridin]-6′-one] was less than 0.3 µM.
As for `Cc1nc(NCc2cnn(Cc3ccc(C(F)(F)F)nc3)c2)nc2c1N(C)C(=O)[C@@H](C)N2C` [Compound I-1363], the IC50 (Homo sapiens, COLO 205, 5 h, R-isomer at C2 (corresponding to C2 S-isomer), Colo 205 TCF/LEF luciferase reporter, 5 h, read-out: TCF reporter Colo205 IC50) is 0.3 to 1 µM.
As for `Cc1nc(N(Cc2cnn(Cc3ccc(C(F)(F)F)nc3)c2)C(=O)OC(C)OC(=O)C(C)C)nc2c1NC(=O)[C@H](C)N2C` (stereo partly drawn) [Compound 408, 1-((((1-((6-(trifluoromethyl)pyridin-3-yl)methyl)-1H-pyrazol-4-yl)methyl)((7S)-4,7,8-trimethyl-6-oxo-5,6,7,8-tetrahydropteridin-2-yl)carbamoyl)oxy)ethyl isobutyrate], the IC50 (Homo sapiens, COLO 205, 5 h, Colo 205 cells with stably transfected TCF/LEF luciferase reporter, five hours after addition of compound, read-out: TCF reporter Colo205) is less than 0.3 µM.
With `Cc1nc(NCc2cnn(Cc3cnc(C(F)(F)F)c(F)c3)c2)nc2c1NC(=O)[C@H](C)N2C` [Compound 209, (7S)-2-(((1-((5-fluoro-6-(trifluoromethyl)pyridin-3-yl)methyl)-1H-pyrazol-4-yl)methyl)amino)-4,7,8-trimethyl-7,8-dihydropteridin-6(5H)-one], the IC50 under setting [1] is less than 0.3 µM.
Still for that read-out and setting: next, `C[C@H]1C(=O)Nc2cnc(NCc3cnn(Cc4ccc(C(F)(F)F)nc4)c3)nc2N1C` [Compound 195, (7S)-7,8-dimethyl-2-(((1-((6-(trifluoromethyl)pyridin-3-yl)methyl)-1H-pyrazol-4-yl)methyl)amino)-7,8-dihydropteridin-6(5H)-one]: 0.3 to 1 µM; `Cc1nc(N[C@H]2C[C@@H](COc3ccc(F)nc3)C2)nc2c1NC(=O)[C@H](C)N2C` [Compound 270, (7S)-2-((cis-3-(((6-fluoropyridin-3-yl)oxy)methyl)cyclobutyl)amino)-4,7,8-trimethyl-7,8-dihydropteridin-6(5H)-one]: 0.3 to 1 µM.
Take `Cc1nc(N[C@H]2C[C@H](Oc3ccc(C(F)(F)F)cc3)C2)nc2c1NC(=O)[C@H](C)N2C` [Compound 340, (7S)-4,7,8-trimethyl-2-((trans-3-(4-(trifluoromethyl)phenoxy)cyclobutyl)amino)-7,8-dihydropteridin-6(5H)-one]: the IC50 under setting [1] was less than 0.3 µM.
On the same count and under the same terms, the value for `Cc1nc(N[C@H]2C[C@@H](NC(=O)Nc3ccc(C(F)(F)F)nc3)C2)nc2c1NC(=O)[C@H](C)N2C` [Compound 473, 1-(6-(trifluoromethyl)pyridin-3-yl)-3-(cis-3-(((S)-4,7,8-trimethyl-6-oxo-5,6,7,8-tetrahydropteridin-2-yl)amino)cyclobutyl)urea] was less than 0.3 µM; that for `Cc1nc(NCc2cnn(Cc3ccc(F)cc3)c2C)nc2c1NC(=O)[C@H](C)N2C` [Compound 74, (7S)-2-(((1-(4-fluorobenzyl)-5-methyl-1H-pyrazol-4-yl)methyl)amino)-4,7,8-trimethyl-7,8-dihydropteridin-6(5H)-one] was 0.3 to 1 µM.
Still for that read-out and setting: the value for `C[C@H]1C(=O)Nc2cnc(NCc3cnn(CCCc4ccc(F)cc4)c3)nc2N1C` [Compound 110, (7S)-2-(((1-(3-(4-fluorophenyl)propyl)-1H-pyrazol-4-yl)methyl)amino)-7,8-dimethyl-7,8-dihydropteridin-6(5H)-one] was 0.3 to 1 µM; that for `Cc1nc(NC2CN(C(=O)Cc3cc(F)cc(F)c3)C2)nc2c1NC(=O)[C@H](C(C)C)N2C` [Compound 629, (S)-2-((1-(2-(3,5-difluorophenyl)acetyl)azetidin-3-yl)amino)-7-isopropyl-4,8-dimethyl-7,8-dihydropteridin-6(5H)-one] was less than 0.3 µM.
Still for that read-out and setting: the value for `COc1ccc(Cn2ccc(CNc3nc(C)c4c(n3)N(C)[C@@H](C)C(=O)N4)n2)cc1OC` [Compound 76, (7S)-2-(((1-(3,4-dimethoxybenzyl)-1H-pyrazol-3-yl)methyl)amino)-4,7,8-trimethyl-7,8-dihydropteridin-6(5H)-one] was not below 5 µM; that for `Cc1nc(NCc2cnn(Cc3cc(F)c(F)cc3F)c2)nc2c1N(C)C(=O)[C@H](C)N2C` [Compound 16, (7S)-4,5,7,8-tetramethyl-2-(((1-(2,4,5-trifluorobenzyl)-1H-pyrazol-4-yl)methyl)amino)-7,8-dihydropteridin-6(5H)-one] was less than 0.3 µM.
Take `Cc1nc(N[C@H]2CCN(Cc3ccc(F)cc3)C2)nc2c1NC(=O)[C@H](C)N2C` [Compound 374, (7S)-2-(((S)-1-(4-fluorobenzyl)pyrrolidin-3-yl)amino)-4,7,8-trimethyl-7,8-dihydropteridin-6(5H)-one]: under setting [1], the IC50 is not below 5 µM.
The same measure, in the same setting: the value for `Cc1nc(NCc2cnn(Cc3ccc(OCC(F)(F)F)nc3)c2)nc2c1NC(=O)[C@H](C)N2C` [Compound 390, (7S)-4,7,8-trimethyl-2-(((1-((6-(2,2,2-trifluoroethoxy)pyridin-3-yl)methyl)-1H-pyrazol-4-yl)methyl)amino)-7,8-dihydropteridin-6(5H)-one] was less than 0.3 µM; that for `COC1(C2C(=O)Nc3c(C)nc(NCc4cnn(Cc5cc(F)c(F)c(F)c5)c4)nc3N2C)CCC1` (stereo not shown) [Compound 668, 7-(1-methoxycyclobutyl)-4,8-dimethyl-2-(((1-(3,4,5-trifluorobenzyl)-1H-pyrazol-4-yl)methyl)amino)-7,8-dihydropteridin-6(5H)-one] was less than 0.3 µM.
With `Cc1nc(N[C@H]2CCc3nn(Cc4ccc(C(F)(F)F)nc4)cc32)nc2c1NC(=O)[C@H](C(C)C)N2C` [Compound 521, (S)-7-isopropyl-4,8-dimethyl-2-(((S)-2-((6-(trifluoromethyl)pyridin-3-yl)methyl)-2,4,5,6-tetrahydrocyclopenta[c]pyrazol-4-yl)amino)-7,8-dihydropteridin-6(5H)-one], the IC50 under setting [1] is 1 to 5 µM.
The same measure, in the same setting: the value for `Cc1nc(N[C@H]2C[C@H](Oc3ccc(F)c(F)c3)C2)nc2c1N(C)C(=O)[C@H](C)N2C` [Compound 252, (7S)-2-((trans-3-(3,4-difluorophenoxy)cyclobutyl)amino)-4,5,7,8-tetramethyl-7,8-dihydropteridin-6(5H)-one] was less than 0.3 µM; that for `Cc1nc(N[C@H]2C[C@@H](NC(=O)Nc3ccc(Cl)nc3)C2)nc2c1NC(=O)[C@H](C)N2C` [Compound 462, 1-(6-chloropyridin-3-yl)-3-(cis-3-(((S)-4,7,8-trimethyl-6-oxo-5,6,7,8-tetrahydropteridin-2-yl)amino)cyclobutyl)urea] was 1 to 5 µM.
